This is an account of results in patent publication US7557244B2, “Substituted biphenyl carboxylic acids and derivatives thereof” (Ortho-McNeil Pharmaceutical, Inc., priority 2006, dated 2009).

SMILES strings stand for the structures.

One experiment has as its system γ-secretase. The experiment in a line: Screening for γ-secretase-modulating activity, Aβ 42 in SKNBE2 cells carrying APP 695-wild type. The note with it: at 3 μM. Format: cell-based. The procedure: Screening of the Compounds of the Invention for γ-Secretase-Modulating Activity
Screening was carried out using SKNBE2 cells carrying the APP 695-wild type, grown in DMEM/NUT-mix F12 (HAM) provided by Gibco (cat no. 31330-38) containing 5% Serum/Fe supplemented with 1% non-essential amino acids.
Cells were grown to near confluency.
The screening was performed using the assay as described in Citron et al (1997) Nature Medicine 3: 67.
IC50-Values of Selected Compounds of the Invention on the γ-Secretase Activity.
Regarding `CC(C)CC(C(=O)O)c1cc(Nc2cc(F)cc(F)c2)cc(-c2ccc(C(F)(F)F)cc2)c1` (centres unmarked) [Compound 1, 2-[5-(3,5-Difluoro-phenylamino)-4′-trifluoromethyl-biphenyl-3-yl]-4-methyl-pentanoic acid], the “WTAPP SKNBE2 Aβ 42 % Inhibition at 3 μM” value was found to be 73%.
For `CC(C)CC(C(=O)O)c1cc(Nc2ccc(F)cc2F)cc(-c2ccc(C(F)(F)F)cc2)c1` (centres unmarked) [Compound 2, 2-[5-(2,4-Difluoro-phenylamino)-4′-trifluoromethyl-biphenyl-3-yl]-4-methyl-pentanoic acid], the “WTAPP SKNBE2 Aβ 42 % Inhibition at 3 μM” value was 62%.
Turning to `CC(C)CC(C(=O)O)c1cc(Nc2ccc(Cl)cc2)cc(-c2ccc(C(F)(F)F)cc2)c1` (centres unmarked) [Compound 5, 2-[5-(4-Chloro-phenylamino)-4′-trifluoromethyl-biphenyl-3-yl]-4-methyl-pentanoic acid], the “WTAPP SKNBE2 Aβ 42 % Inhibition at 3 μM” value is listed as 79%.
With `CC(C)CC(C(=O)O)c1cc(Nc2ccc(F)cc2)cc(-c2ccc(C(F)(F)F)cc2)c1` (centres unmarked) [Compound 6, 2-[5-(4-Fluoro-phenylamino)-4′-trifluoromethyl-biphenyl-3-yl]-4-methyl-pentanoic acid], the “WTAPP SKNBE2 Aβ 42 % Inhibition at 3 μM” value is 66%.
As for `CC(C)CC(C(=O)O)c1cc(Nc2ccc(Cl)c(C(F)(F)F)c2)cc(-c2ccc(C(F)(F)F)cc2)c1` (centres unmarked) [Compound 12, 2-[5-(4-Chloro-3-trifluoromethyl-phenylamino)-4′-trifluoromethyl-biphenyl-3-yl]-4-methyl-pentanoic acid], the “WTAPP SKNBE2 Aβ 42 % Inhibition at 3 μM” value is 81%.
As to `CC(C)CC(C(=O)O)c1cc(Nc2ccc(C#N)cc2)cc(-c2ccc(C(F)(F)F)cc2)c1` (centres unmarked) [Compound 13, 2-[5-(4-Cyano-phenylamino)-4′-trifluoromethyl-biphenyl-3-yl]-4-methyl-pentanoic acid], the “WTAPP SKNBE2 Aβ 42 % Inhibition at 3 μM” value is listed as 52%.
`CC(C)CC(C)(C(=O)O)c1cc(Nc2ccc(C#N)cc2)cc(-c2ccc(C(F)(F)F)cc2)c1` (centres unmarked) [Compound 14, 2-[5-(4-Cyano-phenylamino)-4′-trifluoromethyl-biphenyl-3-yl]-2,4-dimethyl-pentanoic acid]: the “WTAPP SKNBE2 Aβ 42 % Inhibition at 3 μM” value was 17%.
On to `CC(C)CC(C(=O)O)c1cc(Oc2cccc(C(C)C)c2)cc(-c2ccc(C(F)(F)F)cc2)c1` (centres unmarked) [Compound 15, 2-[5-(3-Isopropyl-phenoxy)-4′-trifluoromethyl-biphenyl-3-yl]-4-methyl-pentanoic acid], for which the “WTAPP SKNBE2 Aβ 42 % Inhibition at 3 μM” value is on record as 65%.
Same read-out and setting: with `COc1cc(Oc2cc(-c3ccc(C(F)(F)F)cc3)cc(C(CC(C)C)C(=O)O)c2)ccc1F` (centres unmarked) [Compound 18, 2-[5-(4-Fluoro-3-methoxy-phenoxy)-4′-trifluoromethyl-biphenyl-3-yl]-4-methyl-pentanoic acid] the figure was 19%; with `COc1ccc(Oc2cc(-c3ccc(C(F)(F)F)cc3)cc(C(CC(C)C)C(=O)O)c2)cc1C(F)(F)F` (centres unmarked) [Compound 19, 2-[5-(4-Methoxy-3-trifluoromethyl-phenoxy)-4′-trifluoromethyl-biphenyl-3-yl]-4-methyl-pentanoic acid], 22%.
Same read-out and setting: with `CC(C)CC(C(=O)O)c1cc(Oc2cccc(C(F)(F)F)c2)cc(-c2ccc(Cl)c(C(F)(F)F)c2)c1` (centres unmarked) [Compound 22, 4-Methyl-2-[4′-chloro-3′-trifluoromethyl-5-(3-trifluoromethylphenoxy)-biphenyl-3-yl]-pentanoic acid] the figure was 81%; with `CC(C)CC(C(=O)O)c1cc(Oc2cc(F)cc(F)c2)cc(-c2ccc(Cl)c(C(F)(F)F)c2)c1` (centres unmarked) [Compound 23, 4-Methyl-2-[4′-chloro-3′-trifluoromethyl-5-(3,5-difluorophenoxy)-biphenyl-3-yl]-pentanoic acid], 80%; with `CC(C)CC(C(=O)O)c1cc(Oc2ccccc2)cc(-c2ccc(C(F)(F)F)cc2)c1` (centres unmarked) [Compound 24, 4-Methyl-2-(5-phenoxy-4′-trifluoromethyl-biphenyl-3-yl)-pentanoic acid], 45%.
Same read-out and setting: with `CC(C)CC(C(=O)O)c1cc(Oc2ccc(F)cc2)cc(-c2ccc(C(F)(F)F)cc2)c1` (centres unmarked) [Compound 25, 2-[5-(4-Fluoro-phenoxy)-4′-trifluoromethyl-biphenyl-3-yl]-4-methyl-pentanoic acid] the figure was 54%; with `CC(C)CC(C(=O)O)c1cc(Oc2cccc(F)c2)cc(-c2ccc(C(F)(F)F)cc2)c1` (centres unmarked) [Compound 26, 2-[5-(3-Fluoro-phenoxy)-4′-trifluoromethyl-biphenyl-3-yl]-4-methyl-pentanoic acid], 58%.
Turning to `COc1ccc(Oc2cc(-c3ccc(C(F)(F)F)cc3)cc(C(CC(C)C)C(=O)O)c2)cc1` (centres unmarked) [Compound 28, 2-[5-(4-Methoxy-phenoxy)-4′-trifluoromethyl-biphenyl-3-yl]-4-methyl-pentanoic acid], the “WTAPP SKNBE2 Aβ 42 % Inhibition at 3 μM” value is −3%.
Turning to `CC(C)CC(C(=O)O)c1cc(Oc2ccc(Cl)cc2)cc(-c2ccc(C(F)(F)F)cc2)c1` (centres unmarked) [Compound 29, 2-[5-(4-Chloro-phenoxy)-4′-trifluoromethyl-biphenyl-3-yl]-4-methyl-pentanoic acid], the “WTAPP SKNBE2 Aβ 42 % Inhibition at 3 μM” value was 62%.
Still for that read-out and setting: with `CC(C)CC(C(=O)O)c1cc(Oc2cccc(C(F)(F)F)c2)cc(-c2cc(F)cc(C(F)(F)F)c2)c1` (centres unmarked) [Compound 31, 2-[3′-Fluoro-5′-trifluoromethyl-5-(3-trifluoromethyl-phenoxy)-biphenyl-3-yl]-4-methyl-pentanoic acid] the figure was 84%; with `CC(C)CC(C(=O)O)c1cc(Oc2cc(F)cc(C(F)(F)F)c2)cc(-c2cc(F)cc(C(F)(F)F)c2)c1` (centres unmarked) [Compound 32, 2-[3′-Fluoro-5-(3-fluoro-5-trifluoromethyl-phenoxy)-5′-trifluoromethyl-biphenyl-3-yl]-4-methyl-pentanoic acid], 87%.
As to `CC(C)CC(C(=O)O)c1cc(Oc2cc(F)cc(F)c2)cc(-c2cc(F)cc(C(F)(F)F)c2)c1` (centres unmarked) [Compound 33, 2-[5-(3,5-Difluoro-phenoxy)-3′-fluoro-5′-trifluoromethyl-biphenyl-3-yl]-4-methyl-pentanoic acid], the “WTAPP SKNBE2 Aβ 42 % Inhibition at 3 μM” value is on record as 59%.

Staying with this experiment, now noted: read-out: WTAPP SKNBE2 Aβ 42 EC50.
One may read the EC50 as the concentration needed to bring the measured effect to its halfway point. Regarding `CC(C)CC(C(=O)O)c1cc(Nc2cc(C(F)(F)F)cc(C(F)(F)F)c2)cc(-c2ccc(C(F)(F)F)cc2)c1` (centres unmarked) [Compound 3, 2-[5-(3,5-Bis-trifluoromethyl-phenylamino)-4′-trifluoromethyl-biphenyl-3-yl]-4-methyl-pentanoic acid], the EC50 was 300 nM.
Take `CC(C)CC(C(=O)O)c1cc(Nc2ccc(C(C)C)cc2)cc(-c2ccc(C(F)(F)F)cc2)c1` (centres unmarked) [Compound 4, 2-[5-(4-Isopropyl-phenylamino)-4′-trifluoromethyl-biphenyl-3-yl]-4-methyl-pentanoic acid]: the concentration giving a half-maximal response (EC50) was found to be 290 nM.
Turning to `CC(C)CC(C(=O)O)c1cc(Nc2cc(Cl)cc(Cl)c2)cc(-c2ccc(C(F)(F)F)cc2)c1` (centres unmarked) [Compound 7, 2-[5-(3,5-Dichloro-phenylamino)-4′-trifluoromethyl-biphenyl-3-yl]-4-methyl-pentanoic acid], the EC50 is 420 nM.
`CC(C)CC(C(=O)O)c1cc(Nc2cc(C(F)(F)F)ccc2C(F)(F)F)cc(-c2ccc(C(F)(F)F)cc2)c1` (centres unmarked) [Compound 8, 2-[5-(2,5-Bis-trifluoromethyl-phenylamino)-4′-trifluoromethyl-biphenyl-3-yl]-4-methyl-pentanoic acid]: the 50% effective concentration (EC50) came to 200 nM.
For `CC(C)CC(C(=O)O)c1cc(Nc2ccc(F)cc2C(F)(F)F)cc(-c2ccc(C(F)(F)F)cc2)c1` (centres unmarked) [Compound 9, 2-[5-(4-Fluoro-2-trifluoromethyl-phenylamino)-4′-trifluoromethyl-biphenyl-3-yl]-4-methyl-pentanoic acid], the half-maximal effective concentration (EC50) was found to be 280 nM.
Take `CC(C)CC(C(=O)O)c1cc(Nc2cccc(C(F)(F)F)c2)cc(-c2ccc(C(F)(F)F)cc2)c1` (centres unmarked) [Compound 10, 4-Methyl-2-[4′-trifluoromethyl-5-(3-trifluoromethyl-phenylamino)-biphenyl-3-yl]-pentanoic acid]: the EC50 was 410 nM.
Take `CC(C)CC(C(=O)O)c1cc(Nc2ccc(C(F)(F)F)cc2)cc(-c2ccc(C(F)(F)F)cc2)c1` (centres unmarked) [Compound 11, 4-Methyl-2-[4′-trifluoromethyl-5-(4-trifluoromethyl-phenylamino)-biphenyl-3-yl]-pentanoic acid]: the EC50 was determined as 500 nM.
As for `CC(C)CC(C(=O)O)c1cc(Oc2ccc(C(F)(F)F)cc2)cc(-c2ccc(C(F)(F)F)cc2)c1` (centres unmarked) [Compound 16, 4-Methyl-2-[4′-trifluoromethyl-5-(4-trifluoromethyl-phenoxy)-biphenyl-3-yl]-pentanoic acid], the EC50 is 2250 nM.
As for `CC(C)CC(C(=O)O)c1cc(Oc2cc(F)c(F)c(F)c2)cc(-c2ccc(C(F)(F)F)cc2)c1` (centres unmarked) [Compound 17, 4-Methyl-2-[4′-trifluoromethyl-5-(3,4,5-trifluoro-phenoxy)-biphenyl-3-yl]-pentanoic acid], the EC50 amounted to 1850 nM.
Turning to `CC(C)CC(C(=O)O)c1cc(Oc2cccc(C(F)(F)F)c2)cc(-c2ccc(C(F)(F)F)cc2)c1` (centres unmarked) [Compound 20, 2 4-Methyl-2-[4′-trifluoromethyl-5-(3-trifluoromethyl-phenoxy)-biphenyl-3-yl]-pentanoic acid], the half-maximal effective concentration (EC50) amounted to 660 nM.
Still for that read-out and setting: with `CC(C)CC(C(=O)O)c1cc(Oc2cc(F)cc(F)c2)cc(-c2ccc(C(F)(F)F)cc2)c1` (centres unmarked) [Compound 27, 2-[5-(3,5-Difluoro-phenoxy)-4′-trifluoromethyl-biphenyl-3-yl]-4-methyl-pentanoicacid] the figure was 770 nM; with `CC(C)CC(C(=O)O)c1cc(Oc2cc(F)cc(C(F)(F)F)c2)cc(-c2cc(C(F)(F)F)cc(C(F)(F)F)c2)c1` (centres unmarked) [Compound 34, 2-[5-(3-Fluoro-5-trifluoromethyl-phenoxy)-3′,5′-bis-trifluoromethyl-biphenyl-3-yl]-4-methyl-pentanoic acid], 260 nM.
